In the assay the target is telomerase enzyme (Homo sapiens, UniProt O14746). Briefly: Flash Plate-based telomerase assay. Type of assay: biochemical. The settings on record: two hours of incubation at 37°; only indicative, obtained during screening by fitting a limited number of experimental points. The text has this:
The telomerase activity of the compounds of the invention has been evaluated using a Flash Plate-based assay. […] Other methods for determining the inhibitory concentration of a compound of the invention against telomerase can be employed as will be apparent to a person skilled in the art based on the disclosure herein.
Briefly, the assay mixture is costituted by:
telomerase enzyme diluted in a buffer, the composition of which has been selected to maintain the enzyme activity stable along the duration of the assay.
dNTPs, deoxynucleotides 5′-triphosphate.
biotynilated oligo as primer.
increasing concentrations of test compounds/positive control.
After two hours of incubation at 37° degrees the telomeric repeats added are evaluated by hybridization in solution with a 3′-labeled short oligonucleotide probe. The extent of hybridization is then quantitated by transferring the reaction mixture in a streptavidin-coated flash plate, where the binding between biotin and streptavidin occurs. The telomerase activity is proportional to the radioactivity measured and the inhibitory activity of the compounds is evaluated as IC50 using the Sigma Plot fit program. With the above-described method, IC50 values of the compounds of the present invention were determined. The data reported in Table 1 are only indicative since obtained during the screening by fitting a limited number of experimental points.
telomerase enzyme, sequence (O14746 whole entry): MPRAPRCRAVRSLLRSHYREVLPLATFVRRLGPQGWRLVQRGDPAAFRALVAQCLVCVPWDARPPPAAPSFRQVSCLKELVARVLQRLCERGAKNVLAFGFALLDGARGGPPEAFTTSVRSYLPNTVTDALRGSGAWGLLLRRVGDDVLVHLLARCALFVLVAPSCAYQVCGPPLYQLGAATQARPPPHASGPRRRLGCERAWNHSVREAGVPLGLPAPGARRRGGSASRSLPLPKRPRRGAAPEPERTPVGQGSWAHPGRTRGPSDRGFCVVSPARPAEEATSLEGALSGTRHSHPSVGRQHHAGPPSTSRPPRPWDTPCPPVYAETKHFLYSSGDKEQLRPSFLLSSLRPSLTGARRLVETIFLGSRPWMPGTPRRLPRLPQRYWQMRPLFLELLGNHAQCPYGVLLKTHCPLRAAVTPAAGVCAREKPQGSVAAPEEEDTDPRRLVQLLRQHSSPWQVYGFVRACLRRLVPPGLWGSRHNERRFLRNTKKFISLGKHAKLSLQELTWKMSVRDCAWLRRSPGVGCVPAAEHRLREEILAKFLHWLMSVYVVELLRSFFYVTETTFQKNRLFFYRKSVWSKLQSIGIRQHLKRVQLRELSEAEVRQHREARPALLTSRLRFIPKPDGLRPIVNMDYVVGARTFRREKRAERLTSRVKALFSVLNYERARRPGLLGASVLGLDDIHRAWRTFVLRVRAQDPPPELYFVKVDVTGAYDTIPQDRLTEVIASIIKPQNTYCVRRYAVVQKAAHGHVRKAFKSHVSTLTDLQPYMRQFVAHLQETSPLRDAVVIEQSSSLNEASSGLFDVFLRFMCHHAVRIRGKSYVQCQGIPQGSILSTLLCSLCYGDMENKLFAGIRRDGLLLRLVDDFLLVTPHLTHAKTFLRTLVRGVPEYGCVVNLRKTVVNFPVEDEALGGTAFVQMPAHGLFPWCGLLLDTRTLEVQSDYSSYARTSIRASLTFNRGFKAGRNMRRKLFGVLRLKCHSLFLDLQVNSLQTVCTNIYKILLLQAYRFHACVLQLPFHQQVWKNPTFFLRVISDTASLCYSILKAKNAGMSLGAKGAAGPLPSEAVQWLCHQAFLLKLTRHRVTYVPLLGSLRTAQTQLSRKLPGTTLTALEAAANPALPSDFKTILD
A word on the IC50: it is the concentration that gives 50% inhibition. Lower therefore signals greater potency in that assay. Compound `Nc1nc(=O)c2c(ncn2Cc2ccc3ccccc3c2)n1Cc1ccc2ccccc2c1` [Compound 1, 2-amino-3,7-bis(2-naphthylmethyl)-3,7-dihydro-6H-purin-6-one] came in with an IC50 of 4 µM.

In turn, `Nc1nc(=O)c2c(ncn2Cc2ccc(-c3ccccc3)cc2)n1Cc1ccc(-c2ccccc2)cc1` [Compound 2, 2-amino-3,7-bis-[(1,1′-biphenyl)-4-ylmethyl]-3,7-dihydro-6H-purin-6-one] displayed an IC50 of 3 µM.

Regarding `Nc1nc(=O)c2c(ncn2Cc2ccc(-c3ccc(CCl)cc3)cc2)n1Cc1ccc(-c2ccc(CCl)cc2)cc1` [Compound 3, 2-amino-3,7-bis{[4′-(chloromethyl)[1,1′-biphenyl]-4-yl]methyl}-3,7-dihydro-6H-purin-6-one], it took 5 µM to reach half-maximal inhibition (IC50).

`Nc1nc(=O)c2c(ncn2Cc2ccc(Cl)c(Cl)c2)n1Cc1ccc(Cl)c(Cl)c1` [Compound 4, 2-amino-3,7-bis(3,4-dichlorobenzyl)-3,7-dihydro-6H-purin-6-one] displayed an IC50 of 4 µM.

In the case of `Nc1nc(=O)c2c(ncn2Cc2ccc3ccccc3c2)n1Cc1ccc(-c2ccccc2)cc1` [Compound 5, 2-amino-3-([1,1-biphenyl]-4-ylmethyl)-7-(2-naphthylmethyl)-3,7-dihydro-6H-purin-6-one], inhibition was half-maximal at 2 µM (IC50).

Consider `Nc1nc(=O)c2c(ncn2Cc2ccc(-c3ccccc3)cc2)n1Cc1ccc2ccccc2c1` [Compound 6, 2-amino-3-(2-naphthylmethyl)-7-([1,1′-biphenyl]-4-ylmethyl)-3,7-dihydro-6H-purin-6-one], for which the IC50 stood at 2 µM.

As for `Nc1nc(=O)c2c(ncn2Cc2ccc3ccccc3c2)n1Cc1ccc(Cl)c(Cl)c1` [Compound 7, 2-amino-3 (3,4-dichlorobenzyl)-7-(2-naphthylmethyl)-3,7-dihydro-6H-purin-6-one], the IC50 came out at 3 µM.

For the compound `Nc1nc(=O)c2c(ncn2Cc2ccc3ccccc3c2)n1Cc1cccc(Oc2ccccc2)c1` [Compound 8, 2-amino-3-(3-phenoxybenzyl)-7-(2-naphthylmethyl)-3,7-dihydro-6H-purin-6-one], the IC50 stood at 3 µM.

In turn, `Nc1nc(=O)c2c(ncn2Cc2ccc3ccccc3c2)n1Cc1ccc2c(c1)C(=O)c1ccccc1C2=O` [Compound 19, 2-{[2-amino-7-(2-naphthylmethyl)-6-oxo-6,7-dihydro-3H-purin-3-yl]methyl}anthra-9,10-quinone] had a half-maximal inhibitory concentration (IC50) of 4 µM.

`Nc1nc(=O)c2c(ncn2Cc2ccc3ccccc3c2)n1Cc1ccc(-c2nnn[nH]2)cc1` [Compound 27, 2-amino-7-(2-naphthylmethyl)-3-[4-(1H-tetraazol-5-yl)benzyl]-3,7-dihydro-6H-purin-6-one] came in with an IC50 of 19 µM.

For the compound `COC(=O)c1cccc(Cn2c(N)nc(=O)c3c2ncn3Cc2ccc3ccccc3c2)c1` [Compound 29, Methyl 3-{[2-amino-7-(2-naphthylmethyl)-6-oxo-6,7-dihydro-3H-purin-3-yl]methyl}benzoate], inhibition was half-maximal at 21 µM (IC50).

Values taken from patent US20030186978A1, “Novel telomerase inhibitors” (priority 2000, published 2003).
